Patent US12391737B2, “Soluble NPY2 receptor agonists” (Boehringer Ingelheim International GmbH, priority 2020, dated 2025)
*1 amine or outer side, *2 acyl side, *3 side chain or, on linkers, in order; H or OH if unused. Where a SMILES comes first, the peptide text is derived from it. Side-chain parts run from the residue outwards. The star is where a group is joined. C18 diacid = O=C(O)CCCCCCCCCCCCCCCCC(=O)*; γGlu = O=C(O)[C@H](CCC(=O)[*:2])N[*:1]; Isovaleryl = CC(C)CC(=O)*; Ahx = NCCCCCC(=O)O

Tests used:
[1] = target: T1, Human Neuropeptide Y2 Receptor (Homo sapiens, UniProt P49146); test: Radioligand binding competition assay (RLB); settings: Table 3, 125I-PYY(1-36) competition; read-out: Ki
T1 construct: purchased CHEMICON HTS066M
T1 sequence (P49146 1-381): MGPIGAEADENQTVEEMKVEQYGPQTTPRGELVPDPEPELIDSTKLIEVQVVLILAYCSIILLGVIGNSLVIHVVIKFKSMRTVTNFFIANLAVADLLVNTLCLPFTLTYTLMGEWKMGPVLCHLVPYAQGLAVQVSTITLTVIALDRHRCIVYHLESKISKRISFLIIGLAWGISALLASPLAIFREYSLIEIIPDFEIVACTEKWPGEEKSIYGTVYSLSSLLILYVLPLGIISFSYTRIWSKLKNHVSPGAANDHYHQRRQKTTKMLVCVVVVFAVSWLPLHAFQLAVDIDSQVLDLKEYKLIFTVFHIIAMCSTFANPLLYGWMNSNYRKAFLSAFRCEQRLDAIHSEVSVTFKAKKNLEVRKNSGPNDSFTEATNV
Protocol: The filtration RLB assay was carried out in 96-well plates in a final volume of 100 μl per well. Freeze-dried test peptides were dissolved in 100% dimethyl sulfoxide (DMSO) to stock solutions of 1 mM and serial dilutions were performed in assay buffer (50 mM HEPES, 5 mM MgCl2, 1 mM CaCl2, pH 7.4) containing 0.2% ovalbumin. […] Next, 80 μL membranes (HTS066M, ChemiSCREEN™ Human Neuropeptide Y2 Receptor Membrane Preparation, CHEMICON) were added to each well to give a final protein concentration of 0.5 μg/well. The plates were sealed and incubated at room temperature for 2 hours in a plate shaker set at 400 rpm. The incubation was stopped by vacuum filtration onto 0.5% polyethylene amine (PE) presoaked GF/C filters using a 96-well FilterMate™ harvester (Perkin Elmer) followed by four washes with 300 μl/well ice-cold wash buffer (50 mM HEPES, 500 mM NaCl, pH7.4). Filter plates were then dried for 60 min at room temperature and the bottom of the plates was sealed with backing tape UniFilter-96. Finally, 50 μl/well scintillation counter cocktail (Microscint20, Packard) was added and the radioactivity was counted in the Packard TopCount NXT scintillation counter. IC50 values (the half maximal inhibitory concentration of the agonist) were calculated by nonlinear regression analysis of sigmoidal dose-response curves.

[2] = Solubility determination; settings: for Sol6: pH 6; for Sol7: pH 7
Protocol: Peptides (as TFA salts) were weighed out in a filter unit (Mini-UniPrep Syringeless Filter 0.45 μm, Whatman), and 0.1 M sodium diphosphate buffer at pH 6.4 or 7.0 was added to achieve 10 mg/ml final concentration. The peptide was dissolved by shaking the filter unit horizontally at 600 rpm for 2 hours at room temperature. The sample was filtered, to remove any insoluble particles and diluted to 1 mg/ml in 50% acetonitrile. The control was prepared by weighing out the corresponding peptide and dissolving it in 50% acetonitrile to final concentration of 1 mg/ml. Both the control and sample were analysed with reversed phase chromatography. The area under the peak of the sample was compared to the control and the solubility was calculated based on that ratio.
The pH was measured and recorded for each sample.
System: UltiMate 3000 UPLC, ThermoFisher
Mobile phase A: 5% acetonitrile, 95% water, 0.03% trifluoracetic acid.
Mobile phase B: 95% acetonitrile, 5% water, 0.03% trifluoracetic acid.
Gradient: 0-100% mobile phase B (2 mins.)
Column temperature: 50° C.

| Structure (SMILES) | Ki [1] [nM] | Sol6 [2] [mg/mL] | Sol7 [2] [mg/mL] |
| --- | --- | --- | --- |
| CC[C@H](C)[C@H](NC(=O)[C@H](CCC(=O)O)NC(=O)[C@H](CCC(=O)O)NC(=O)[C@@H]1CCCN1C(=O)[C@@H](NC(=O)[C@H](C)NC(=O)[C@H](C)NC(=O)[C@H](CCC(=O)O)NC(=O)[C@H](CCC(=O)O)NC(=O)[C@@H]1CCCN1C(=O)[C@H](CCCCNC(=O)CCCCCNC(=O)CC[C@H](NC(=O)CCCCCCCCCCCCCCCCC(=O)O)C(=O)O)NC(=O)[C@H](CCC(=O)O)NC(=O)[C@@H]1CCCN1C(=O)[C@H](C)NC(=O)CC(C)C)[C@@H](C)O)C(=O)N[C@@H](CCC(N)=O)C(=O)N[C@@H](CCCNC(=N)N)C(=O)N[C@@H](Cc1ccc(O)cc1)C(=O)N[C@@H](Cc1ccc(O)cc1)C(=O)N[C@H](C(=O)N[C@@H](C)C(=O)N[C@@H](CC(C)C)C(=O)N[C@@H](CCCNC(=N)N)C(=O)N[C@@H](Cc1c[nH]cn1)C(=O)N[C@@H](Cc1ccc(O)cc1)C(=O)N[C@@H](Cc1ccc(O)cc1)C(=O)N[C@@H](CC(N)=O)C(=O)N[C@@H](Cc1c[nH]c2ccccc12)C(=O)N[C@@H](CC(C)C)C(=O)N[C@H](C(=O)N[C@@H](CCCNC(=N)N)C(=O)N[C@@H](CCC(N)=O)C(=O)N[C@@H](CCCNC(=N)N)C(=O)N[C@@H](Cc1ccc(O)cc1)C(N)=O)[C@@H](C)O)C(C)C [Compound 154, N{alpha-4}-(3-methylbutanoyl)-N{epsilon-7}-(6-[(4S)-4-carboxy-4-(17-carboxyheptadecanamido)butanamido]hexanoyl)-[4A,7K,9E,11A,13T,17I,18Q,22V,23A,28Y,30W,31L]-hPYY(4-36)] | 3.71 | 8.3 | >10.0 |
| CC(C)CC(=O)N[C@@H](C)C(=O)N1CCC[C@H]1C(=O)N[C@@H](C)C(=O)N[C@@H](CCCCNC(=O)CCCCCNC(=O)CC[C@H](NC(=O)CCCCCCCCCCCCCCCCC(=O)O)C(=O)O)C(=O)N1CCC[C@H]1C(=O)N[C@@H](CCC(=O)O)C(=O)N[C@@H](CCC(=O)O)C(=O)N[C@@H](CCC(=O)O)C(=O)N[C@@H](C)C(=O)N[C@@H](CO)C(=O)N1CCC[C@H]1C(=O)N[C@@H](CCC(=O)O)C(=O)N[C@@H](CCC(=O)O)C(=O)N[C@@H](CC(C)C)C(=O)N[C@@H](CCC(N)=O)C(=O)N[C@@H](CCCNC(=N)N)C(=O)N[C@@H](Cc1ccc(O)cc1)C(=O)N[C@@H](Cc1ccc(O)cc1)C(=O)N[C@H](C(=O)N[C@@H](CO)C(=O)N[C@@H](CC(C)C)C(=O)N[C@@H](CCCNC(=N)N)C(=O)N[C@@H](Cc1c[nH]cn1)C(=O)N[C@@H](Cc1ccc(O)cc1)C(=O)N[C@@H](Cc1ccc(O)cc1)C(=O)N[C@@H](CC(N)=O)C(=O)N[C@@H](Cc1c[nH]c2ccccc12)C(=O)N[C@@H](CC(C)C)C(=O)N[C@H](C(=O)N[C@@H](CCCNC(=N)N)C(=O)N[C@@H](CCC(N)=O)C(=O)N[C@@H](CCCNC(=N)N)C(=O)N[C@@H](Cc1ccc(O)cc1)C(N)=O)[C@@H](C)O)C(C)C [Compound 199, N{alpha-4}-(3-methylbutanoyl)-N{epsilon-7}-(6-[(4S)-4-carboxy-4-(17-carboxyheptadecanamido)butanamido]hexanoyl)-[4A,6A,7K,9E,11E,18Q,22V,28Y,30W,31L]-hPYY(4-36)] | 2.87 | 9.0 | 9.1 |
| CC(C)CC(=O)N[C@@H](C)C(=O)N1CCC[C@H]1C(=O)N[C@@H](CCC(=O)O)C(=O)N[C@@H](CCCCNC(=O)CCCCCNC(=O)CC[C@H](NC(=O)CCCCCCCCCCCCCCCCC(=O)O)C(=O)O)C(=O)N1CCC[C@H]1C(=O)N[C@@H](CCC(=O)O)C(=O)N[C@@H](CCC(=O)O)C(=O)N[C@@H](CC(=O)O)C(=O)N[C@@H](CO)C(=O)N[C@@H](CO)C(=O)N1CCC[C@H]1C(=O)N[C@@H](CCC(=O)O)C(=O)N[C@@H](CCC(=O)O)C(=O)N[C@@H](CC(C)C)C(=O)N[C@@H](CCC(N)=O)C(=O)N[C@@H](CCCNC(=N)N)C(=O)N[C@@H](Cc1ccc(O)cc1)C(=O)N[C@@H](Cc1ccc(O)cc1)C(=O)N[C@H](C(=O)N[C@@H](C)C(=O)N[C@@H](CC(C)C)C(=O)N[C@@H](CCCNC(=N)N)C(=O)N[C@@H](Cc1c[nH]cn1)C(=O)N[C@@H](Cc1ccc(O)cc1)C(=O)N[C@@H](Cc1ccc(O)cc1)C(=O)N[C@@H](CC(N)=O)C(=O)N[C@@H](Cc1c[nH]c2ccccc12)C(=O)N[C@@H](CC(C)C)C(=O)N[C@H](C(=O)N[C@@H](CCCNC(=N)N)C(=O)N[C@@H](CCC(N)=O)C(=O)N[C@@H](CCCNC(=N)N)C(=O)N[C@@H](Cc1ccc(O)cc1)C(N)=O)[C@@H](C)O)C(C)C [Compound 24, N{alpha-4}-(3-methylbutanoyl)-N{epsilon-7}-(6-[(4S)-4-carboxy-4-(17-carboxyheptadecanamido)butanamido]hexanoyl)[4A,7K,9E,12S,18Q,22V,23A,28Y,30W,31L]-hPYY(4-36)] | 3.39 | 9.8 | 10.0 |

Now those with a lower Ki [1], led by results:

| Ki [1] [nM] | Sol6 [2] [mg/mL] | Sol7 [2] [mg/mL] | Structure (SMILES) |
| --- | --- | --- | --- |
| 0.41 | 0.1 | 8.9 | CC[C@H](C)[C@H](NC(=O)[C@H](CCC(=O)O)NC(=O)[C@H](CCC(=O)O)NC(=O)[C@@H]1CCCN1C(=O)[C@H](CO)NC(=O)[C@H](C)NC(=O)[C@H](CC(=O)O)NC(=O)[C@H](C)NC(=O)[C@@H]1CCCN1C(=O)[C@@H]1CCCN1C(=O)[C@H](CCCCNC(=O)CCCCCNC(=O)CC[C@H](NC(=O)CCCCCCCCCCCCCCCCC(=O)O)C(=O)O)NC(=O)[C@H](CCC(=O)O)NC(=O)[C@@H]1CCCN1C(=O)[C@H](C)NC(=O)CC(C)C)C(=O)N[C@@H](CCC(N)=O)C(=O)N[C@@H](CCCNC(=N)N)C(=O)N[C@@H](Cc1ccc(O)cc1)C(=O)N[C@@H](Cc1ccc(O)cc1)C(=O)N[C@H](C(=O)N[C@@H](CO)C(=O)N[C@@H](CC(C)C)C(=O)N[C@@H](CCCNC(=N)N)C(=O)N[C@@H](Cc1c[nH]cn1)C(=O)N[C@@H](Cc1ccc(O)cc1)C(=O)N[C@@H](Cc1ccc(O)cc1)C(=O)N[C@@H](CC(N)=O)C(=O)N[C@@H](Cc1c[nH]c2ccccc12)C(=O)N[C@@H](CC(C)C)C(=O)N[C@H](C(=O)N[C@@H](CCCNC(=N)N)C(=O)N[C@@H](CCC(N)=O)C(=O)N[C@@H](CCCNC(=N)N)C(=O)N[C@@H](Cc1ccc(O)cc1)C(N)=O)[C@@H](C)O)C(C)C [Compound 61, N{alpha-4}-(3-methylbutanoyl)-N{epsilon-7}-(6-[(4S)-4-carboxy-4-(17-carboxyheptadecanamido)butanamido]hexanoyl)-[4A,7K,9P,10A,17I,18Q,22V,28Y,30W,31L]-hPYY(4-36)] |
| 1.36 | 9.9 | 10.0 | CC(C)CC(=O)N[C@@H](C)C(=O)N1CCC[C@H]1C(=O)N[C@@H](CCC(=O)O)C(=O)N[C@@H](CCCCNC(=O)CCCCCNC(=O)CC[C@H](NC(=O)CCCCCCCCCCCCCCCCC(=O)O)C(=O)O)C(=O)N1CCC[C@H]1C(=O)N[C@@H](CCC(=O)O)C(=O)N[C@@H](C)C(=O)N[C@@H](CC(=O)O)C(=O)N[C@@H](CO)C(=O)N[C@@H](CO)C(=O)N1CCC[C@H]1C(=O)N[C@@H](CCC(=O)O)C(=O)N[C@@H](CCC(=O)O)C(=O)N[C@@H](CC(C)C)C(=O)N[C@@H](CCC(N)=O)C(=O)N[C@@H](CCCNC(=N)N)C(=O)N[C@@H](Cc1ccc(O)cc1)C(=O)N[C@@H](Cc1ccc(O)cc1)C(=O)N[C@H](C(=O)N[C@@H](CO)C(=O)N[C@@H](CC(C)C)C(=O)N[C@@H](CCCNC(=N)N)C(=O)N[C@@H](Cc1c[nH]cn1)C(=O)N[C@@H](Cc1ccc(O)cc1)C(=O)N[C@@H](Cc1ccc(O)cc1)C(=O)N[C@@H](CC(N)=O)C(=O)N[C@@H](Cc1c[nH]c2ccccc12)C(=O)N[C@@H](CC(C)C)C(=O)N[C@H](C(=O)N[C@@H](CCCNC(=N)N)C(=O)N[C@@H](CCC(N)=O)C(=O)N[C@@H](CCCNC(=N)N)C(=O)N[C@@H](Cc1ccc(O)cc1)C(N)=O)[C@@H](C)O)C(C)C [Compound 29, N{alpha-4}-(3-methylbutanoyl)-N{epsilon-7}-(6-[(4S)-4-carboxy-4-(17-carboxyheptadecanamido)butanamido]hexanoyl)[4A,7K,9E,10A,12S,18Q,22V,28Y,30W,31L]-hPYY(4-36)] (Isovaleryl-APEK([Ahx-γGlu-C18 diacid])PEADSSPEELQRYYVSLRHYYNWLTRQRY-NH2) |
